Data reported in PubChem BioAssay (NCI).
Where “and” joins values, the source holds several entries; their conditions need not be identical. Identical values can stand only once.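 Cells were grown in 96-well plates and exposed to each compound for 48 hours at five concentrations; endpoints were interpolated linearly between bracketing concentrations, or set to the highest concentration if not reached. Here, GI50 denotes the concentration required for 50% inhibition of growth. TGI: concentration producing complete growth inhibition.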

How the values were obtained:
Assay in all cases: growth of human tumour cells (NCI), 48 h
K-562 leukemia = system: K-562 leukemia
KM12 colon = system: KM12 colon
LOX IMVI melanoma = system: LOX IMVI melanoma
M14 melanoma = system: M14 melanoma
MALME-3M melanoma = system: MALME-3M melanoma
NCI/ADR-RES ovarian = system: NCI/ADR-RES ovarian
OVCAR-4 ovarian = system: OVCAR-4 ovarian
OVCAR-8 ovarian = system: OVCAR-8 ovarian
SK-MEL-2 melanoma = system: SK-MEL-2 melanoma
SK-MEL-5 melanoma = system: SK-MEL-5 melanoma

Row | Compound | GI50 (K-562 leukemia) | TGI (K-562 leukemia) | GI50 (KM12 colon) | TGI (KM12 colon) | GI50 (LOX IMVI melanoma) | TGI (LOX IMVI melanoma) | GI50 (M14 melanoma) | TGI (M14 melanoma) | GI50 (MALME-3M melanoma) | TGI (MALME-3M melanoma) | GI50 (NCI/ADR-RES ovarian) | TGI (NCI/ADR-RES ovarian) | GI50 (OVCAR-4 ovarian) | TGI (OVCAR-4 ovarian) | GI50 (OVCAR-8 ovarian) | TGI (OVCAR-8 ovarian) | GI50 (SK-MEL-2 melanoma) | TGI (SK-MEL-2 melanoma) | GI50 (SK-MEL-5 melanoma) | TGI (SK-MEL-5 melanoma)
1 | COc1cc(/C=C2\C(=O)N(C)c3ccccc32)cc(OC)c1OC | 5.02 µM | > 100 µM | 11.2 µM | 30.1 µM | 11.1 µM | 26.7 µM | 16.8 µM | 46.9 µM | 82.7 µM | > 100 µM | 13.7 µM | 56.7 µM | 18.6 µM | > 100 µM | 22.7 µM | 95.2 µM | 14.3 µM | 45.8 µM | 10.1 µM | 27.8 µM
2 | c1cncc(C2ONC3=NCCN32)c1 (stereo not drawn) | 35.6 µM | > 100 µM | 21.2 µM | > 100 µM |  |  | 64.3 µM | > 100 µM | 5.17 µM | 91.4 µM | 22.1 µM | 80.4 µM | > 100 µM | > 100 µM | 27.4 µM | > 100 µM | 68.8 µM | > 100 µM | 23.6 µM | > 100 µM
3 | COC(=O)c1ccc2[nH]c(O)c(C(=Nc3ccc(N(C)C(=O)CN4CCN(C)CC4)cc3)c3ccccc3)c2c1 | 0.241 µM | 11.9 µM | 0.0353 µM | 5.52 µM | 0.552 µM | 1.92 µM | 0.729 µM | 2.42 µM | 1.43 µM | 2.86 µM | 9.36 µM | 36.4 µM | 0.956 µM | 2.78 µM | 1.61 µM | 7.1 µM | 1.17 µM | 3.54 µM | 1.35 µM | 2.69 µM
4 | COc1cc(N(CCC#N)CCC#N)ccc1/C(N=Nc1ccc(C(=O)O)cc1)=N/NC(=O)c1cc(Br)ccc1O | > 150 mg/L | > 150 mg/L | 50.3 mg/L | > 150 mg/L | 84.4 mg/L | > 150 mg/L | 72 mg/L | > 150 mg/L | > 150 mg/L | > 150 mg/L | 49.4 mg/L | > 150 mg/L | 30 mg/L | 65.5 mg/L | 50.6 mg/L | > 150 mg/L | > 150 mg/L | > 150 mg/L | 69.7 mg/L | > 150 mg/L
5 | Fc1ccc(-c2nn3c(COc4ccc(Cl)cc4)nnc3s2)cc1Oc1ccccc1 | 42.1 µM | > 100 µM | 40.8 µM | > 100 µM | > 42.2 µM | > 56.3 µM | > 49.5 µM | > 79.3 µM | 29 µM | 67.4 µM | 30.5 µM | 95.5 µM | 50.4 µM | > 100 µM | 21.2 µM | 66.3 µM | 38.6 µM | > 100 µM | 18.2 µM | 41.5 µM
6 | O=NN(CCCl)C(=O)NC1CCCCC1 | 10.9 µM and 36.6 µM | 43.9 µM and 228 µM and 106 µM | 17.5 µM and 82.1 µM | 47.4 µM and 158 µM and 200 µM | 14.2 µM and 27.9 µM | 52 µM and 56.9 µM and 74.8 µM | 16.8 µM and 56.8 µM | 33 µM and 127 µM and 82.8 µM | 18 µM | 37 µM and 150 µM and 112 µM |  | 186 µM | 20 µM | 90.8 µM and 155 µM and 87.1 µM | 19.2 µM and 70.8 µM | 42 µM and 208 µM and 215 µM | 22.7 µM and 194 µM | 49.4 µM and 159 µM and 272 µM | 23 µM and 78.4 µM | 78.5 µM and 133 µM and 209 µM
7 | Cc1ccnc(Nc2ccc([N+](=O)[O-])c(NCCN3CCOCC3)n2)c1 | 0.00368 µM | > 100 µM | 0.00464 µM |  | 0.0052 µM | 27.9 µM |  | 45.2 µM | 0.00617 µM |  | 0.00429 µM |  | 0.0151 µM |  | 0.0334 µM and 0.0201 µM | > 100 µM | 0.00566 µM and 0.0304 µM | 27.2 µM | 0.00564 µM | 0.206 µM and 0.315 µM
8 | O=C(c1ccccc1)C(Br)C(Br)c1ccccc1 (stereo not drawn) |  |  | 3.5 µM | 11.3 µM | 1.82 µM | 3.41 µM | 2.01 µM | 4.12 µM | 2.02 µM | 4.31 µM | 2.92 µM | 9.55 µM | 1.66 µM | 3.08 µM | 4.12 µM | 13.3 µM | 10.7 µM | 24.6 µM | 12.6 µM | 25.6 µM
9 | Clc1ccc2c(NCCCN3CCN(c4nc(N5CCOCC5)nc5ccccc45)CC3)ccnc2c1 | 0.402 µM | 3.75 µM |  |  | 1.98 µM | 3.97 µM | 1.39 µM | 2.85 µM | 1.9 µM | 3.49 µM | 2.23 µM | 4.73 µM | 1.9 µM | 4.64 µM | 1.98 µM | 4.47 µM | 1.87 µM | 3.49 µM | 1.73 µM | 3.12 µM
